From patent publication US20110312890A1, “ACETYLATED AMINO ACIDS AS ANTI-PLATELET AGENTS, NUTRITIONAL AND VITAMIN SUPPLEMENTS” (SIGNATURE R&D HOLDINGS, LLC, priority 2005, published 2011)
Values joined by “and” are separate entries in the source; they are usually repeats but may differ in a detail not shown here. Equal values may be shown once. Non-standard residues stand in square brackets, D forms with d. Residues, ends and D or L forms follow the SMILES beside them. ξ: configuration not given here. ξY = NC(Cc1ccc(O)cc1)C(=O)O; ξS = NC(CO)C(=O)O

How the values were obtained:
[1] = Hygroscopicity and handling stability of salts and zwitterions; type: physicochemical
Description: Salts of compound O-Acetyl-(L)-Serine-O—(O-Acetyl)-L-Serine with various acids, including HCl, MeSO3H and tartaric acid, were prepared. […] The salt with tartaric acid was unstable and produced the zwitterion son attempted recrystallization from water/acetonitrile. The zwitterions of all three compounds were the most convenient forms (non-hygroscopic) for preparation. If needed, salts are prepared in situ during the formulation process.
(§1) A sample of the compound of Ex 3 was tested in D2O with 1 drop of DCl added for a better solubility of the material. […] Stability of the compound of Ex 3 in an aqueous solution as a salt of tartaric acid is much greater. A 400-mg sample of the salt was attempted to recrystallize from 6 ml of boiling acetonitrile and 20 drops of water. The material crystallized as a zwitterion (not a tartrate) with minor traces of the decomposition. However, the recovery was 132 mg only.
(§2) c. The material of Ex 3 as a zwitterion was recrystallized from aqueous 40% EtOH while heating at 70 C for approximately 20 minutes. […] In a solution of 8% acetonitrile/92% aqueous 0.05 mol buffer of KH2PO4 (pH 5). […] Temperature of the analyses greatly affected the outcome of the analyses.

[2] = Stability in solution or solid state followed by NMR; type: physicochemical
Description: (§3) In addition, HPLC analysis of the products indicated faster degradation when determinations were made at higher temperatures (40 or 25° C. compared to 10 or 15° C.). The purity of the compounds of Ex 4 varied by as much as 20% when the analysis was performed at 25 and 10° C., respectively.
as §1
(§4) f. Instability of the compound of Ex 4 in an aqueous solution as a zwitterion was observed when a recovery of an additional amount of the material from a large freeze-drying flask was attempted. Simple dissolution of a residual material on the walls with DI water followed by freeze-drying has decrease estimated by NMR purity from 95-96% to 87-88%. • g. […] The same sample analyzed at 25 C and 10 C had difference in purity 13-15%, e.g., either 78-80% or 93%.
(§5) Instability of the compound of Ex 5 in an aqueous solution as a zwitterion was observed while doing a purification of an additional amount of the material on C8 silica gel with water/acetonitrile as eluent. • j. The material of the compound of Ex 5 was decomposing faster during HPLC analysis when temperature of the thermostat was higher. The same sample analyzed at 40 C and 15 C had purity 97% or 99%, correspondingly. • k.

[3] = Stability followed by HPLC purity (time in solution, temperature of analysis); type: physicochemical; settings: for HPLC purity, same sample analyzed at 10 C: temperature of analysis 10 C (Ex 3: pH 4.5); for HPLC purity, same sample analyzed at 40 C: temperature of analysis 40 C
Description: as §3, §2, §4, §5

platelet aggregation [4] = experiment: Whole blood clotting time by capillary tube method in human volunteers; type: in vivo; settings: for Max % Increase in clotting time: versus time zero
Description: A Test Method was developed to determine clotting time to evaluate the anti, platelet aggregation effect of O-acetyl-L-Tyrosine (OAT) by employing capillary tube method in two human volunteers.
1. Dose Strength: Volunteer 1 (90 Kg) 1000 mg, Volunteer 2 (60 Kg) 350 mg of OAT
3. Route of Administration: Single exposure by […]. 4. Blank Control Self, time zero clotting time
600 mg of O-Acetyl-L-Serine-O-Acetyl-L-Tyrouine was administered to a single human volunteer who weighs 136 lbs and is […]. The procedure was conducted using the protocol of Example 2, except the drug administered was O-Acetyl-L-Serine-O-Acetyl-L-Tyrosine. The results are depicted in FIG. 3.

platelet aggregation [5] = experiment: Clotting time by capillary tube method in Swiss Albino rats (anti platelet aggregation effect); type: in vivo; settings: for Clotting time: OAS study, 2 hours post dosing, HCl salt; for Clotting time / Clotting time in minutes, After 4 hrs of administration / Clotting time in minutes, After 24 hrs of administration: single oral gavage; for Significance of clotting times at all dose levels and between the dose levels (FIG. 1): rats, 10-100 mg/kg, average of 5 rats, P<0.5 [sic]; for Clotting time in minutes, After 4 hrs of administration / Clotting time in minutes, After 24 hrs of administration: OAT study
Description: A Test Method was developed to determine clotting time to evaluate the anti platelet aggregation effect of O-acetyl-L-Serine HCl salt (OAS), and O-acetyl-L-Tyrosine (OAT) by employing a capillary tube method using Swiss Albino Rats as the test system.
Young 5-6 weeks old Swiss Albino rats weighing about 200 Gm were used in the following protocol. They were obtained from an established animal supplier.
1. Dose Strength: 10, 20, 50 and 100 mg/kg of OAS and OAT
3. Route of Administration: Single exposure by oral gavage. 4. No. of animals per group: 5
Experimental procedure: The rats were fasted for 18-20 hours before dosing. A Syringe attached to a 16 gauge blunt tipped canula was used for this purpose. Two hours after dosing, the animals were provided with feed. 24 hours (±10 minutes) after the administration of the drug, blood samples were collected (0.2 ml approx) in capillary tubes. Animals were anaesthetized by mild ether inhalation by keeping a cotton swab soaked in ether near the nostrils of the animal. Blood was collected from the orbital sinus onto the capillary tube. […] For the confirmation of clotting, clotting as checked 30 seconds after the last observed clotting. An increase in clotting time compared to vehicle is an index of inhibition of platelet aggregation.
[…] With OAS, only one clotting time measurement, at 2 hours post dosing, was performed.
In FIG. 1, the clotting time in minutes was plotted against Log of the dose in mg/kg, each point being an average of clotting time obtained in 5 rats. A value of zero was assigned to vehicle control (zero dose). […] (AceTyro=O-Acetyl-L-Tyrosine and AceSer=O-Acetyl-L-Serine HCl).

[6] = 8% acetonitrile/92% aqueous 0.05 mol buffer of KH2PO4 (pH 5)
[7] = single human volunteer, 136 lbs, 600 mg
[8] = Group-2, individual rats, likely 10 mg/kg
[9] = Group-3, individual rats, likely 20 mg/kg
[10] = Group-4, individual rats, likely 50 mg/kg
[11] = Group-5, individual rats, likely 100 mg/kg

With `CC(=O)OC[C@H](NC(=O)[C@@H](N)COC(C)=O)C(=O)O` [Ex 3, O-acetyl-(L)-serine-O-acetyl-(L)-serine] (H-Ser(Ac)-Ser(Ac)-OH) the Hygroscopicity of salts ([1]; salts with HCl, MeSO3H and tartaric acid) was “hygroscopic” and the “Stability of the salt with tartaric acid on attempted recrystallization” value ([1]; water/acetonitrile, produced the zwitterion) was “unstable”.

With `CC(=O)OCC(NC(=O)[C@@H](N)COC(C)=O)C(=O)O` (stereo partly shown) [Ex 3, O-acetyl-(L)-serine-O-acetyl-(L)-serine] (H-Ser(Ac)-[ξS](Ac)-OH) the “Stability in solutions during isolation, purification and analyses (qualitative)” value (from here on “Stability in solutions during isolation”) [2] was “Certain instability”, the “NMR purity of the fresh prepared sample” value ([2]; D2O with 1 drop of DCl) was “about 95%” and the “NMR sample after 4 days at room temperature” value ([2]; D2O with 1 drop of DCl, three sets of signals found) was “severe decomposition”. The “HPLC purity after 5 days after dissolution” value [3, 6] was 95.7%, the “HPLC purity in solution before storage” value [3, 6] was 97.3% and the “HPLC purity, same sample analyzed at 10 C” value [3] was 99.4%. The “HPLC purity, same sample analyzed at 40 C” value [3] was 97.3%, the “Stability in an aqueous solution as a salt of tartaric acid” value ([1]; compared with D2O/DCl sample) was “much greater” and the “By-product on recrystallization from aqueous 40% EtOH” value ([1]; zwitterion, heating at 70 C for approximately 20 minutes, mother liquor) was “Significant accumulation of the O, N-acetyl shift's by-product”.

In the case of `CC(=O)OC[C@H](N)C(=O)N[C@H](C(=O)O)[C@@H](C)OC(C)=O` [Ex 4, O-acetyl-(L)-serine-O-acetyl-(L)-threonine] (H-Ser(Ac)-Thr(Ac)-OH), the “Stability in solutions during isolation” value [2] is reported as “greatest instability in the whole series”, the “Purity estimated by NMR before re-dissolution” value ([2]; zwitterion) is reported as 95-96% and the “Purity estimated by NMR after dissolution with DI water followed by freeze-drying” value ([2]; zwitterion, aqueous solution) is reported as 87-88%. The “Variation of purity between HPLC analysis at 25 and 10° C.” value [3] was ≤ 20%, the “Difference in HPLC purity between analysis at 25 C and 10 C” value ([3]; same sample) was 13-15% and the “HPLC purity, same sample analyzed at 10 C” value [3] was 93%. The “HPLC purity, same sample analyzed at 25 C” value ([3]; temperature of analysis 25 C) was 78-80%.

In the case of `CC(=O)OC[C@H](N)C(=O)NC(Cc1ccc(OC(C)=O)cc1)C(=O)O` (stereo partly shown) [Ex 5, O-acetyl-(L)-serine-O-acetyl-(L)-tyrosine] (H-Ser(Ac)-[ξY](Ac)-OH), the “Anti platelet activity (blood clotting time, FIG. 3)” value (platelet aggregation [4]; [7]) is reported as “significant anti platelet activity”, the “Period of significant anti platelet activity” value (platelet aggregation [4]; [7]) is reported as 200 h and the “Stability in solutions during isolation” value [2] is reported as “comparable stability of relative to Compound F”. The “O, N-shift by-product formed after 26 hours” value ([2]; D2O solution (NMR sample)) was “about 3.4%”, the “Decomposition in a solid state after 5 days of storage at 25 C” value ([2]; batch B, freshly dissolved material, NMR) was “a trace of the signal at 3.7 ppm (CH2OH group) was observed” and the “O, N-shift impurity after 5 days” value ([2]; same NMR sample in D2O) was 4.7%. For the same molecule, the “HPLC purity, same sample analyzed at 15 C” value ([3]; temperature of analysis 15 C) was 99% and the “HPLC purity, same sample analyzed at 40 C” value [3] was 97%.

With `CC(=O)OC[C@H](N)C(=O)O.Cl` [OAS, O-acetyl-L-Serine HCl salt] the “Clotting time” value (platelet aggregation [5]; [8]) was 6 minutes (2×) and 8 minutes and 9 minutes (2×), the “Clotting time” value (platelet aggregation [5]; [9]) was 9 minutes (3×) and 8 minutes (2×) and the “Clotting time” value (platelet aggregation [5]; [10]) was 19 min and 20 min and 16 min and 17 min and 15 min. For the same molecule, the “Clotting time” value (platelet aggregation [5]; [11]) was 26 minutes (2×) and 22 minutes and 30 minutes and 29 minutes and the “Significance of clotting times at all dose levels and between the dose levels (FIG. 1)” value (platelet aggregation [5]) was “statistically significant”.

With `CC(=O)Oc1ccc(C[C@H](N)C(=O)O)cc1` [OAT, O-acetyl-L-Tyrosine] the “Clotting time in minutes, After 4 hrs of administration” value (from here on “Clotting time in minutes, After 4 hrs”) (platelet aggregation [5]; Group-2, individual rats, group dose not given (doses 10, 20, 50, 100 mg/kg)) was 8 minutes (2×) and 9 minutes (2×) and 10 minutes, the “Clotting time in minutes, After 24 hrs of administration” value (shortened to “Clotting time in minutes, After 24 hrs”) (platelet aggregation [5]; [8]) was 8 minutes (2×) and 9 minutes (2×) and 7 minutes and the “Clotting time in minutes, After 4 hrs” value (platelet aggregation [5]; [9]) was 9 minutes (2×) and 10 minutes (2×) and 15 minutes. For the same molecule, the “Clotting time in minutes, After 24 hrs” value (platelet aggregation [5]; [9]) was 9 minutes and 10 minutes (2×) and 8 minutes and 11 minutes, the “Clotting time in minutes, After 4 hrs” value (platelet aggregation [5]; [10]) was 18 minutes and 19 minutes (2×) and 17 minutes (2×) and the “Clotting time in minutes, After 24 hrs” value (platelet aggregation [5]; [10]) was 14 minutes (3×) and 16 minutes (2×). The “Clotting time in minutes, After 4 hrs” value (platelet aggregation [5]; [11]) was 21 minutes (2×) and 26 minutes and 29 minutes and 25 minutes, the “Clotting time in minutes, After 24 hrs” value (platelet aggregation [5]; [11]) was 19 min and 23 min and 22 min and 25 min and 24 min and the “Significance of clotting times at all dose levels and between the dose levels (FIG. 1)” value (platelet aggregation [5]) was “statistically significant”. It also gave a Whole blood clotting time (platelet aggregation [4]; Vol 1 (90 Kg), 1000 mg once, Time 8) of 6.5 min, a Whole blood clotting time (platelet aggregation [4]; Vol 1 (90 Kg), 1000 mg once, Time 12) of 8.5 min and a Whole blood clotting time (platelet aggregation [4]; Vol 1 (90 Kg), 1000 mg once, Time 24) of 8 min. The Whole blood clotting time (platelet aggregation [4]; Vol 1 (90 Kg), 1000 mg once, Time 48) was 7.5 min, the “Sustained Increase % in clotting time” value (platelet aggregation [4]; Vol 1, 1000 mg, at 48 hours after initial dose, listed as O-Acetyl Tyrosine) was 25% and the “Max % Increase in clotting time” value (platelet aggregation [4]; Vol 1, 1000 mg) was 42%. The Whole blood clotting time (platelet aggregation [4]; Vol 2 (60 Kg), 350 mg once, Time 2) was 5.5 min, the Whole blood clotting time (platelet aggregation [4]; Vol 2 (60 Kg), 350 mg once, Time 5) was 6 min and the Whole blood clotting time (platelet aggregation [4]; Vol 2 (60 Kg), 350 mg once, Time 11) was 6.75 min. The Whole blood clotting time (platelet aggregation [4]; Vol 2 (60 Kg), 350 mg once, Time 22.5) was 6.5 min, the “Sustained Increase % in clotting time” value (platelet aggregation [4]; Vol 2, 350 mg, last time point) was 18% and the “Max % Increase in clotting time” value (platelet aggregation [4]; Vol 2, 350 mg, listed as O-Acetyl Tyrosine) was 23%. For the same molecule, the “Time for which increase in clotting time was sustained” value (platelet aggregation [4]; Volunteer 1, 1000 mg) was “at least 48 hours”, the “Dose dependence of increase in clotting time” value (platelet aggregation [4]; two human volunteers, 1000 mg and 350 mg) was “dose dependent increase in clotting time” and the “Side effects or toxic reactions reported by volunteers” value (platelet aggregation [4]; two human volunteers, single dose 1000 mg or 350 mg) was “Neither volunteer reported any unusual side effects or toxic reactions”.
